Earlier results as cited in patent US20220175800A1, “DISPERSIBLE TABLET COMPOSITION” (PTC THERAPEUTICS INC., priority 2019, published 2022).

SMILES: CC(=O)OCC(=O)[C@@]12N=C(C)O[C@@H]1C[C@H]1[C@@H]3CCC4=CC(=O)C=C[C@]4(C)[C@H]3[C@@H](O)C[C@@]12C [Deflazacort, (11β,16β)-21-(acetyloxy)11-hydroxy-2′-methyl-5′H-pregna-1,4-dieno[17,16-d]oxazole-3,20-dione]
- Solubility in water: poorly soluble in water
